# Measured values as given in the supplement of paper PMC11208160.
# Assay: recombinant UMI read abundance after kanamycin selection (control-corrected) (log10(CPM+1)); higher = more efficient recombination; extreme values may be limits of the assay; sequences stand for … in AGTGCAGAGAAAATCGGCCAGTTTTCTCTGCCTGCAGTCCGCATGCCGTGGGACCCCTTGGGTTCTAACCTGTTGCCTAGATTTATGCAGCGGACTGCCTTTCTCCCAAAGTGATAAACCGG…AGGTTGGTTTCACT; site = the 11-nt donor
# Method in brief: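 Sequencing read counts were converted to CPM, averaged over two replicates and scaled by control-derived factors. Results are given as log10(CPM+1). The reads covered the donor–target junction of recombinant UMIs from a pooled Escherichia coli screen of donor and donor-binding-loop pairs for the IS621 bridge recombinase.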
# 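Note: IS621 bridge recombinase in Escherichia coli cells against a fixed T5 target plasmid.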
row,Sequence,recombinant UMI read abundance (log10)
1,GGGGCACCATGGACCGGTTTTCCCGGTAATCCGTATTTGCC (site GGGGCACCTCG),0.0076
2,GGGGCACCATGGACCGGTTTTCCCGGTAATCCGTATTTGCC (site GGGGCACCTGG),0
3,GGGGCACCATGGACCGGTTTTCCCGGTAATCCGTATTTGCC (site GGGGCACCTTG),0.00491
4,GGGGCCCCATGGACCGGTTTTCCCGGTAATCCGTATTTGCA (site GGGGCACCTTG),0.00505
5,GGGGCCCCATGGACCGGTTTTCCCGGTAATCCGTATTTGCA (site GGGGCCCCTTG),0.411
6,GGGGCCCCATGGACCGGTTTTCCCGGTAATCCGTATTTGCA (site GGGGCGCCTTG),0.0155
7,GGGGCCCCATGGACCGGTTTTCCCGGTAATCCGTATTTGCA (site GGGGCTCCTTG),0.0122
8,GGGGGACCATGGACCGGTTTTCCCGGTAATCCGTATTTGCA (site GGGGAACCTTG),0
9,GGGGGACCATGGACCGGTTTTCCCGGTAATCCGTATTTGCA (site GGGGCACCTTG),0
10,GGGGGACCATGGACCGGTTTTCCCGGTAATCCGTATTTGCA (site GGGGGACCTTG),0
11,GGGGGACCATGGACCGGTTTTCCCGGTAATCCGTATTTGCA (site GGGGTACCTTG),0
12,GGGGTACCATGGACCGGTTTTCCCGGTAATCCGTATTTGCA (site GGGGAACCTTG),0
13,GGGGTACCATGGACCGGTTTTCCCGGTAATCCGTATTTGCA (site GGGGCACCTTG),0
14,GGGGTACCATGGACCGGTTTTCCCGGTAATCCGTATTTGCA (site GGGGGACCTTG),0
15,GGGGTACCATGGACCGGTTTTCCCGGTAATCCGTATTTGCA (site GGGGTACCTTG),0
16,GGGGTGGCATGGACCGGTTTTCCCGGTAATCCGTATTTGGT (site GGAGTGGCTAC),0.553
17,GGGGTGGCATGGACCGGTTTTCCCGGTAATCCGTATTTGGT (site GGCGTGGCTAC),0.0131
18,GGGGTGGCATGGACCGGTTTTCCCGGTAATCCGTATTTGGT (site GGGGTGGCTAC),0.659
19,GGGGTGGCATGGACCGGTTTTCCCGGTAATCCGTATTTGGT (site GGTGTGGCTAC),0.146
20,GGGTATCCATGGACCGGTTTTCCCGGTAATCCGTATTTGTT (site CGGAATCCTAA),0
21,GGGTATCCATGGACCGGTTTTCCCGGTAATCCGTATTTGTT (site GGGTATCCTAA),0.0203
22,GGGTCACCATGGACCGGTTTTCCCGGTAATCCGTATTTGCA (site GGGACACCTTG),0
23,GGGTCACCATGGACCGGTTTTCCCGGTAATCCGTATTTGCA (site GGGCCACCTTG),0

row,Sequence,recombinant UMI read abundance (log10)
1,GGGTCACCATGGACCGGTTTTCCCGGTAATCCGTATTTGCA (site GGGGCACCTTG),0
2,GGGTCACCATGGACCGGTTTTCCCGGTAATCCGTATTTGCA (site GGGTCACCTTG),0
3,GGGTGTGCATGGACCGGTTTTCCCGGTAATCCGTATTTGGC (site GGGTGTGCTGC),3
4,GGGTTCCCATGGACCGGTTTTCCCGGTAATCCGTATTTGTC (site GGGTTCCCTGA),0
5,GGTAAACCATGGACCGGTTTTCCCGGTAATCCGTATTTGAA (site GGTAAACCTTT),0
6,GGTACGGCATGGACCGGTTTTCCCGGTAATCCGTATTTGTT (site GGTACGACTAA),0.00937
7,GGTACGGCATGGACCGGTTTTCCCGGTAATCCGTATTTGTT (site GGTACGCCTAA),0.0122
8,GGTACGGCATGGACCGGTTTTCCCGGTAATCCGTATTTGTT (site GGTACGGCTAA),0.0127
9,GGTACGGCATGGACCGGTTTTCCCGGTAATCCGTATTTGTT (site GGTACGTCTAA),0
10,GGTACGTCATGGACCGGTTTTCCCGGTAATCCGTATTTGCT (site GGTACGTCTAA),0.0386
11,GGTACGTCATGGACCGGTTTTCCCGGTAATCCGTATTTGCT (site GGTACGTCTAC),0.0226
12,GGTACGTCATGGACCGGTTTTCCCGGTAATCCGTATTTGCT (site GGTACGTCTAG),2
13,GGTACGTCATGGACCGGTTTTCCCGGTAATCCGTATTTGCT (site GGTACGTCTAT),0.00579
14,GGTACGTCATGGACCGGTTTTCCCGGTAATCCGTATTTGGT (site GGTACGTCTAA),0.00807
15,GGTACGTCATGGACCGGTTTTCCCGGTAATCCGTATTTGGT (site GGTACGTCTAC),1.33
16,GGTACGTCATGGACCGGTTTTCCCGGTAATCCGTATTTGGT (site GGTACGTCTAG),0
17,GGTACGTCATGGACCGGTTTTCCCGGTAATCCGTATTTGGT (site GGTACGTCTAT),0.339
18,GGTACGTCATGGACCGGTTTTCCCGGTAATCCGTATTTGTG (site GGTACGTCTAA),0.0133
19,GGTACGTCATGGACCGGTTTTCCCGGTAATCCGTATTTGTG (site GGTACGTCTCA),0.338
20,GGTACGTCATGGACCGGTTTTCCCGGTAATCCGTATTTGTG (site GGTACGTCTGA),0
21,GGTACGTCATGGACCGGTTTTCCCGGTAATCCGTATTTGTG (site GGTACGTCTTA),0
22,GGTACGTCATGGACCGGTTTTCCCGGTAATCCGTATTTGTT (site AGTACGTCTAA),0.0112
23,GGTACGTCATGGACCGGTTTTCCCGGTAATCCGTATTTGTT (site CGTACGTCTAA),0

row,Sequence,recombinant UMI read abundance (log10)
1,GGTACGTCATGGACCGGTTTTCCCGGTAATCCGTATTTGTT (site GATACGTCTAA),0.00543
2,GGTACGTCATGGACCGGTTTTCCCGGTAATCCGTATTTGTT (site GCTACGTCTAA),0.0161
3,GGTACGTCATGGACCGGTTTTCCCGGTAATCCGTATTTGTT (site GGAACGTCTAA),0.0323
4,GGTACGTCATGGACCGGTTTTCCCGGTAATCCGTATTTGTT (site GGCACGTCTAA),0.0185
5,GGTACGTCATGGACCGGTTTTCCCGGTAATCCGTATTTGTT (site GGGACGTCTAA),0.0133
6,GGTACGTCATGGACCGGTTTTCCCGGTAATCCGTATTTGTT (site GGTAAGTCTAA),0
7,GGTACGTCATGGACCGGTTTTCCCGGTAATCCGTATTTGTT (site GGTACATCTAA),0.535
8,GGTACGTCATGGACCGGTTTTCCCGGTAATCCGTATTTGTT (site GGTACCTCTAA),0.0198
9,GGTACGTCATGGACCGGTTTTCCCGGTAATCCGTATTTGTT (site GGTACGACTAA),0.0066
10,GGTACGTCATGGACCGGTTTTCCCGGTAATCCGTATTTGTT (site GGTACGCCTAA),0.0208
11,GGTACGTCATGGACCGGTTTTCCCGGTAATCCGTATTTGTT (site GGTACGGCTAA),0.0154
12,GGTACGTCATGGACCGGTTTTCCCGGTAATCCGTATTTGTT (site GGTACGTCTAA),0.31
13,GGTACGTCATGGACCGGTTTTCCCGGTAATCCGTATTTGTT (site GGTACGTCTAC),0
14,GGTACGTCATGGACCGGTTTTCCCGGTAATCCGTATTTGTT (site GGTACGTCTAG),0
15,GGTACGTCATGGACCGGTTTTCCCGGTAATCCGTATTTGTT (site GGTACGTCTAT),0
16,GGTACGTCATGGACCGGTTTTCCCGGTAATCCGTATTTGTT (site GGTACGTCTCA),0.0191
17,GGTACGTCATGGACCGGTTTTCCCGGTAATCCGTATTTGTT (site GGTACGTCTGA),0
18,GGTACGTCATGGACCGGTTTTCCCGGTAATCCGTATTTGTT (site GGTACGTCTTA),0.0065
19,GGTACGTCATGGACCGGTTTTCCCGGTAATCCGTATTTGTT (site GGTACTTCTAA),0
20,GGTACGTCATGGACCGGTTTTCCCGGTAATCCGTATTTGTT (site GGTAGGTCTAA),0.00929
21,GGTACGTCATGGACCGGTTTTCCCGGTAATCCGTATTTGTT (site GGTATGTCTAA),0.00457
22,GGTACGTCATGGACCGGTTTTCCCGGTAATCCGTATTTGTT (site GGTCCGTCTAA),0.0113
